Experimental data reported in patent US8686044B2, “Amide derivative, pest control agent containing the amide derivative, and use of the amide derivative” (Mitsui Chemicals Agro, Inc., priority 2008, dated 2014).

What was measured:
Type in all cases: in vivo
[1] = system: Spodoptera litura; assay: Pesticidal test against Spodoptera litura (cabbage leaf dip); conditions: foliar, 144 h, 2-stage larvae, examined after 6 days, 25° C., read-out: pesticidal rate; for pest or weed control at 1 ppm: concentration 1 ppm; for pest or weed control at 10 ppm: concentration 10 ppm
Experimental: (§1) Pesticidal Test against Spodoptera litura A piece of a cabbage leaf was immersed for 30 seconds in a chemical solution in which a test compound had been prepared at a predetermined concentration, and air-dried, and then put into a 7 cm polyethylene cup having a filter paper laid on the bottom thereof, and 2-stage larvae of Spodoptera litura were released. They were left to stand in a thermostatic chamber at 25° C., and the numbers of the living pests and the dead pests were examined after 6 days. The test was carried out with five larvae per group in two replicates. Further, the following compound (A) disclosed in the pamphlet of International Publication WO 2005/073165 was used as a comparative compound.

[2] = system: Plutella xylostella; assay: Pesticidal test against Plutella xylostella (cabbage leaf dip); conditions: foliar, 144 h, 2-stage larvae, examined after 6 days, 25° C., read-out: pesticidal rate; for pest or weed control at 1 ppm: concentration 1 ppm; for pest or weed control at 10 ppm: concentration 10 ppm
Experimental: as §1, with “Plutella xylostella” for “Spodoptera litura”, “above” for “following”, “(A)” for “(A) disclosed in the pamphlet of International Publication WO 2005/073165”

[3] = system: Laodelphax striatellus; assay: Pesticidal test against Laodelphax striatellus (rice seedling spray); conditions: 144 h, concentration 100 ppm, 3-stage larvae, examined after 6 days, 25° C., read-out: pesticidal rate
Experimental: Pesticidal Test against Laodelphax striatellus
2.5 ml of an acetone solution in which a test compound had been prepared at a predetermined concentration was sprayed on rice seedlings, air-dried, and then put into a glass tube having a diameter of 3 cm and a height of 13 cm, having water therein, and 3-stage larvae of Laodelphax striatellus were released and the tube was capped. They were left to stand in a thermostatic chamber at 25° C., and the numbers of the living pests and the dead pests were examined after 6 days. The test was carried out with ten larvae per group in two replicates.

Structure (SMILES)	pest or weed control at 1 ppm [1]	pest or weed control at 1 ppm [2]	pest or weed control at 100 ppm [3]	pest or weed control at 10 ppm [2]	pest or weed control at 10 ppm [1]
N#Cc1ccc(C(=O)Nc2cc(C(=O)Nc3c(Cl)cc(C(F)(C(F)(F)F)C(F)(F)F)cc3C(F)(F)F)ccc2C#N)cc1 [1-491]	≥ 70%	≥ 70%	≥ 70%	–	–
N#Cc1ccc(C(=O)Nc2c(Br)cc(C(F)(C(F)(F)F)C(F)(F)F)cc2C(F)(F)F)cc1NC(=O)c1ccccc1 [1-627, 3-benzamide-N-(2-bromo-4-(perfluoropropan-2-yl)-6-(trifluoromethyl)phenyl)-4-cyanobenzamide]	≥ 70%	≥ 70%	≥ 70%	–	–
CN(C(=O)c1ccc(C#N)cc1)c1cc(C(=O)Nc2c(Cl)cc(C(F)(C(F)(F)F)C(F)(F)F)cc2C(F)(F)F)ccc1C#N [2-491, N-(2-chloro-4-(perfluoropropan-2-yl)-6-(trifluoromethyl)phenyl)-4-cyano-3-(4-cyano-N-methylbenzamide)benzamide]	≥ 70%	≥ 70%	≥ 70%	–	–
N#Cc1cccc(C(=O)Nc2cccc(C(=O)Nc3c(Br)cc(C(F)(C(F)(F)F)C(F)(F)C(F)(F)F)cc3Br)c2)c1 (stereo not drawn) [6-45]	≥ 70%	≥ 70%	≥ 70%	–	–
O=C(Nc1c(Br)cc(C(F)(C(F)(F)F)C(F)(F)C(F)(F)F)cc1Br)c1cccc(NC(=O)c2cccnc2Cl)c1 (stereo not drawn) [6-57]	≥ 70%	≥ 70%	≥ 70%	–	–
O=C(Nc1cccc(C(=O)Nc2c(I)cc(C(F)(C(F)(F)F)C(F)(F)C(F)(F)F)cc2I)c1)c1ccccc1 (stereo not drawn) [6-71]	≥ 70%	≥ 70%	≥ 70%	–	–
N#Cc1ccc(C(=O)Nc2cccc(C(=O)Nc3c(I)cc(C(F)(C(F)(F)F)C(F)(F)C(F)(F)F)cc3I)c2)cc1 (stereo not drawn) [6-79, 3-(4-cyanobenzamide)-N-(2,6-diiodo-4-(perfluorobutan-2-yl)phenyl)benzamide]	≥ 70%	≥ 70%	≥ 70%	–	–
O=C(Nc1c(Cl)cc(C(F)(C(F)(F)F)C(F)(F)F)cc1C(F)(F)F)c1cccc(NC(=O)c2cccnc2Cl)c1 [6-147]	≥ 70%	≥ 70%	≥ 70%	–	–
O=C(Nc1cccc(C(=O)Nc2c(Br)cc(C(F)(C(F)(F)F)C(F)(F)F)cc2C(F)(F)F)c1)c1ccccc1 [6-268]	≥ 70%	≥ 70%	≥ 70%	–	–
O=C(Nc1c(Br)cc(C(F)(C(F)(F)F)C(F)(F)F)cc1C(F)(F)F)c1cccc(NC(=O)c2ccccc2F)c1 [6-269]	≥ 70%	–	≥ 70%	≥ 70%	–
O=C(Nc1cccc(C(=O)Nc2c(Br)cc(C(F)(C(F)(F)F)C(F)(F)F)cc2C(F)(F)F)c1)c1cccc(F)c1 [6-270]	≥ 70%	≥ 70%	≥ 70%	–	–
O=C(Nc1c(Br)cc(C(F)(C(F)(F)F)C(F)(F)F)cc1C(F)(F)F)c1cccc(NC(=O)c2c(F)cccc2F)c1 [6-290]	≥ 70%	≥ 70%	≥ 70%	–	–
O=C(Nc1c(Br)cc(C(F)(C(F)(F)F)C(F)(F)F)cc1C(F)(F)F)c1cccc(NC(=O)c2cccnc2Cl)c1 [6-304]	≥ 70%	≥ 70%	≥ 70%	–	–
O=C(Nc1c(Br)cc(C(F)(C(F)(F)F)C(F)(F)F)cc1C(F)(F)F)c1cccc(NC(=O)c2cccnc2I)c1 [6-306]	≥ 70%	≥ 70%	≥ 70%	–	–
O=C(Nc1cccc(C(=O)Nc2c(Br)cc(C(F)(C(F)(F)F)C(F)(F)F)cc2C(F)(F)F)c1)c1ccc(Cl)nc1 [6-311]	≥ 70%	–	≥ 70%	≥ 70%	–
O=C(Nc1c(I)cc(C(F)(C(F)(F)F)C(F)(F)F)cc1C(F)(F)F)c1cccc(NC(=O)c2ccccc2F)c1 [6-425]	≥ 70%	≥ 70%	≥ 70%	–	–

Structure (SMILES)	pest or weed control at 1 ppm [1]	pest or weed control at 1 ppm [2]	pest or weed control at 100 ppm [3]	pest or weed control at 10 ppm [2]	pest or weed control at 10 ppm [1]
CN(C(=O)c1ccccc1F)c1cccc(C(=O)Nc2c(I)cc(C(F)(C(F)(F)F)C(F)(F)F)cc2C(F)(F)F)c1 [7-425]	≥ 70%	≥ 70%	–	–	–
CN(C(=O)c1ccccc1)c1cccc(C(=O)Nc2c(C(F)(F)F)cc(C(F)(C(F)(F)F)C(F)(F)F)cc2C(F)(F)F)c1 [7-804]	≥ 70%	–	–	≥ 70%	–
CN(C(=O)c1cccc(C#N)c1)c1cccc(C(=O)Nc2c(C(F)(F)F)cc(C(F)(C(F)(F)F)C(F)(F)F)cc2C(F)(F)F)c1 [7-824]	≥ 70%	≥ 70%	–	–	–
CN(C(=O)c1ccc(C#N)cc1)c1cccc(C(=O)Nc2c(Cl)cc(C(F)(C(F)(F)F)C(F)(F)F)cc2Cl)c1F [7-969]	≥ 70%	≥ 70%	–	–	–
CN(C(=O)c1cccnc1Cl)c1cc(C(=O)Nc2c(Br)cc(C(F)(C(F)(F)F)C(F)(F)F)cc2C(F)(F)F)ccc1F [7-3384]	≥ 70%	≥ 70%	–	–	–
CN(C(=O)c1ccc(F)cc1)c1cccc(C(=O)Nc2c(I)cc(C(F)(C(F)(F)F)C(F)(F)C(F)(F)F)cc2I)c1 (stereo not drawn) [7-5905]	≥ 70%	≥ 70%	–	–	–
CN(C(=O)c1ccc(S(C)(=O)=O)cc1)c1cccc(C(=O)Nc2c(Br)cc(C(F)(C(F)(F)F)C(F)(F)F)cc2C(F)(F)F)c1 [7-5908]	–	–	–	≥ 70%	≥ 70%
COC(=O)c1cc(C#N)cc(C(=O)N(C)c2cccc(C(=O)Nc3c(Br)cc(C(F)(C(F)(F)F)C(F)(F)F)cc3C(F)(F)F)c2F)c1 [7-5910]	≥ 70%	≥ 70%	–	–	–
CN(C(=O)c1ccccc1)c1cccc(C(=O)Nc2c(Br)cc(C(F)(F)C(F)(F)F)cc2C(F)(F)F)c1 [7-5911]	–	–	–	≥ 70%	≥ 70%
CN(C(=O)c1cccc(NC(=O)c2ccccc2)c1)c1c(Br)cc(C(F)(C(F)(F)F)C(F)(F)F)cc1C(F)(F)F [8-268]	≥ 70%	≥ 70%	–	–	–
CN(C(=O)c1cccc(NC(=O)c2cccc(C#N)c2)c1)c1c(Br)cc(C(F)(C(F)(F)F)C(F)(F)F)cc1C(F)(F)F [8-288]	≥ 70%	≥ 70%	–	–	–
CN(C(=O)c1cccc(NC(=O)c2ccccc2)c1)c1c(C(F)(F)F)cc(C(F)(C(F)(F)F)C(F)(F)F)cc1C(F)(F)F [8-804]	≥ 70%	–	–	≥ 70%	–
CN(C(=O)c1cccc(NC(=O)c2cccc(C#N)c2)c1)c1c(C(F)(F)F)cc(C(F)(C(F)(F)F)C(F)(F)F)cc1C(F)(F)F [8-824]	≥ 70%	≥ 70%	–	–	–
CN(C(=O)c1ccccc1F)c1nc(C(=O)Nc2c(Br)cc(C(F)(C(F)(F)F)C(F)(F)F)cc2C(F)(F)F)cs1 [27-628, N-(2-bromo-4-(perfluoropropan-2-yl)-6-(trifluoromethyl)phenyl)-2-(2-fluoro-N-methylbenzamide)thiazole-4-carboxamide]	–	–	–	≥ 70%	≥ 70%
CN(C(=O)c1cccnc1Cl)c1nc(C(=O)Nc2c(Br)cc(C(F)(C(F)(F)F)C(F)(F)F)cc2C(F)(F)F)cs1 [27-663]	≥ 70%	–	–	≥ 70%	–
